These molecules were tested against PDE10 from pig striatum (Sus scrofa, UniProt A0A287B941) (assay: Inhibition of PDE10 from pig striatum ([3H]-cAMP SPA)). Details: Table 8; read-out: PDE10 pig IC50.
Type: biochemical
Method: Phosphodiesterase isoenzyme 10 (PDE10) activity was determined in preparations of human recombinant PDE10A and PDE10 from pig striatum, respectively.
Striatum from male hybrid pigs (150 kg) were collected and frozen at −70° C.
At the day of preparation 0.5 g striatum was homogenised in 10 ml 50 mM Tris/Mg-buffer at 4° C. and centrifuged for one hour at 100000 g. The supernatant was removed and the pellet was resuspended in the same buffer, but containing 1% Triton and incubated for 45 min at 4° C. The membrane fraction was applied onto a 5 ml Hi Trap™ QHP column at the Akta-FPLC. After washing the column the bound PDE protein was eluted with an increasing sodium chloride gradient (O mM-500 mM sodium chloride) in 50 mM Tris/Mg-buffer at 4° C. in the presence of 1% Triton. […] The fractions with PDE10-activity were pooled and frozen in aliquots until use at −20° C.
(§1) PDE10 activity was determined in a one step procedure in microtiterplates. […] Nonspecific activity was tested without the enzyme. The reaction was initiated by addition of the substrate solution and was carried out at 37° C. for 30 minutes. Enzymatic activity was stopped by addition of 25 μl YSi-SPA-beads (Amersham-Pharmacia). One hour later the mixture was measured in a liquid scintillation counter for microtiterplates (Microbeta Trilux). To pipette the incubation mixture a robot Biomek (Fa. Beckman) is used. […] For determination of IC50 values the Hill-plot, 2-parameter-model, was used.
The phosphodiesterase isoenzyme 10 (PDE10) activity was determined in preparations of rat, pig and guinea pig striatum respectively. Striatum from male Wistar rats (180-200 g), male hybrid pigs (150 kg) and male guinea pigs (CRL (HA), 500 g) respectively were collected and frozen at −70° C.
At the day of preparation 0.5 g striatum was homogenized in 10 ml 50 mM Tris/Mg-buffer at 4° C. and centrifuged for one hour at 100000 g. The supernatant is called the cytosolic fraction and was removed and stored on ice. The pellet was resuspended in the same buffer, but containing 1% Triton and incubated for 45 min at 4° C. Both fractions were independently applied onto a 5 ml Hi Trap™ QHP column at the Akta-FPLC. After washing the columns the bound PDE protein was eluted with an increasing sodium chloride gradient (0 mM-500 mM sodium chloride) in 50 mM Tris/Mg-buffer at 4° C. for the cytosolic fraction and in the presence of 1% Triton for the membrane fraction. […] The fractions with PDE10-activity were pooled and frozen in aliquots until use at −20° C.
as §1, with “YSi-SPA beads” for “YSi-SPA-beads”

IC50 | Structure (SMILES)
< 10 nM | COc1ccc2nc(C)c3c(C)nc(-c4cc(Cl)ccc4C)n3c2n1 [Example 79, 9-(5-Chloro-2-methylphenyl)-2-methoxy-6,7-dimethylimidazo[1,5-a]pyrido[3,2-e]pyrazine]
< 10 nM | COc1ccc2nc(C)c3c(C)nc(-c4ccc(Cl)cc4C)n3c2n1 [Example 80, 9-(4-Chloro-2-methylphenyl)-2-methoxy-6,7-dimethylimidazo[1,5-a]pyrido[3,2-e]pyrazine]
< 10 nM | COc1ccc2nc(C)c3c(C)nc(-c4cc(F)ccc4C)n3c2n1 [Example 81, 9-(5-Fluoro-2-methylphenyl)-2-methoxy-6,7-dimethylmidazo[1,5-a]pyrido[3,2-e]pyrazine]
< 10 nM | COc1ccc2nc(C)c3c(C)nc(-c4ccc(F)cc4C)n3c2n1 [Example 82, 9-(4-Fluoro-2-methylphenyl)-2-methoxy-6,7-dimethylmidazo[1,5-a]pyrido[3,2-e]pyrazine]
10 to 100 nM | COc1ccc2nc(C)c3c(C)nc(-c4cc(F)ccc4OC)n3c2n1 [Example 83, 9-(5-Fluoro-2-methoxyphenyl)-2-methoxy-6,7-dimethylimidazo[1,5-a]pyrido[3,2-e]pyrazine]
10 to 100 nM | COc1ccc2nc(C)c3c(C)nc(-c4cc(Cl)ccc4OC)n3c2n1 [Example 84, 9-(5-Chloro-2-methoxyphenyl)-2-methoxy-6,7-dimethylimidazo[1,5-a]pyrido[3,2-e]pyrazine]
< 10 nM | COc1ccc2nc(C)c3c(C)nc(-c4ccc(C(N)=O)cc4)n3c2n1 [Example 85, 4-(2-Methoxy-6,7-dimethylimidazo[1,5-a]pyrido[3,2-e]pyrazin-9-yl)benzamide]
10 to 100 nM | COc1ccc2nc(C)c3c(C)nc(-c4ccc(F)cc4OC)n3c2n1 [Example 86, 9-(4-Fluoro-2-methoxyphenyl)-2-methoxy-6,7-dimethylmidazo[1,5-a]pyrido[3,2-e]pyrazine]
< 10 nM | COc1ccc2nc(C)c3c(C)nc(-c4cccc(Cl)c4C)n3c2n1 [Example 87, 9-(3-Chloro-2-methylphenyl)-2-methoxy-6,7-dimethylimidazo[1,5-a]pyrido[3,2-e]pyrazine]
< 10 nM | COc1ccc2nc(C)c3c(C)nc(-c4cccc(F)c4C)n3c2n1 [Example 88, 9-(3-Fluoro-2-methylphenyl)-2-methoxy-6,7-dimethylmidazo[1,5-a]pyrido[3,2-e]pyrazine]
< 10 nM | COc1ccc2nc(C)c3c(C)nc(-c4cccc(Cl)c4Cl)n3c2n1 [Example 89, 9-(2,3-dichlorophenyl)-2-methoxy-6,7-dimethylimidazo[1,5-a]pyrido[3,2-e]pyrazine]
10 to 100 nM | COc1ccc2nc(C)c3c(C)nc(-c4ccc(Cl)cc4OC)n3c2n1 [Example 90, 9-(4-Chloro-2-methoxyphenyl)-2-methoxy-6,7-dimethylimidazo[1,5-a]pyrido[3,2-e]pyrazine]
< 10 nM | COc1ccc2nc(C)c3c(C)nc(-c4ccc(Cl)cc4C(F)(F)F)n3c2n1 [Example 91, 9-[4-Chloro-2-(trifluoromethyl)phenyl]-2-methoxy-6,7-dimethylimidazo[1,5-a]pyrido[3,2-e]pyrazine]
10 to 100 nM | COc1ccc2nc(C)c3c(C)nc(-c4ccc(Cl)s4)n3c2n1 [Example 92, 9-(5-Chloro-2-thienyl)-2-methoxy-6,7-dimethylimidazo[1,5-a]pyrido[3,2-e]pyrazine]
< 10 nM | COc1ccc2nc(C)c3c(C)nc(-c4cccc(C(N)=O)c4)n3c2n1 [Example 93, 3-(2-Methoxy-6,7-dimethylimidazo[1,5-a]pyrido[3,2-e]pyrazin-9-yl)benzamide]
> 100 nM | COc1cccc(C#Cc2nc(C)c3c(C)nc4ccc(OC)nc4n23)c1 [Example 94, 2-Methoxy-9-[(3-methoxyphenyl)ethynyl]-6,7-dimethylimidazo[1,5-a]pyrido[3,2-e]pyrazine]
> 100 nM | COc1ccc2nc(C)c3c(C)nc(C#CC4CCCCC4)n3c2n1 [Example 95, 9-(Cyclohexylethynyl)-2-methoxy-6,7-dimethylimidazo[1,5-a]pyrido[3,2-e]pyrazine]
10 to 100 nM | COc1ccc2nc(C)c3c(C)nc(C#Cc4ccccc4Cl)n3c2n1 [Example 96, 9-[(2-Chlorophenyl)ethynyl]-2-methoxy-6,7-dimethylimidazo[1,5-a]pyrido[3,2-e]pyrazine]
10 to 100 nM | COc1ccc2nc(C)c3c(C)nc(C#CC4CC4)n3c2n1 [Example 97, 9-(Cyclopropylethynyl)-2-methoxy-6,7-dimethylmidazo[1,5-a]pyrido[3,2-e]pyrazine]
> 100 nM | COc1ccc2nc(C)c3c(C)nc(C#Cc4ccccc4OC)n3c2n1 [Example 98, 2-Methoxy-9-[(2-methoxyphenyl)ethynyl]-6,7-dimethylimidazo[1,5-a]pyrido[3,2-e]pyrazine]
> 100 nM | COc1ccc2nc(C)c3c(C)nc(C#Cc4ccccc4C)n3c2n1 [Example 99, 2-Methoxy-6,7-dimethyl-9-[(2-methylphenyl)ethynyl]imidazo[1,5-a]pyrido[3,2-e]pyrazine]
> 100 nM | CNC(=O)c1cccc(-c2nc(C)c3c(C)nc4ccc(OC)nc4n23)c1 [Example 100, 3-(2-Methoxy-6,7-dimethylimidazo[1,5-a]pyrido[3,2-e]pyrazin-9-yl)-N-methylbenzamide]
10 to 100 nM | CCNC(=O)c1cccc(-c2nc(C)c3c(C)nc4ccc(OC)nc4n23)c1 [Example 101, N-Ethyl-3-(2-methoxy-6,7-dimethylimidazo[1,5-a]pyrido[3,2-e]pyrazin-9-yl)benzamide]
10 to 100 nM | CONC(=O)c1cccc(-c2nc(C)c3c(C)nc4ccc(OC)nc4n23)c1 [Example 102, N-Methoxy-3-(2-methoxy-6,7-dimethylimidazo[1,5-a]pyrido[3,2-e]pyrazin-9-yl)benzamide]
10 to 100 nM | COc1ccc2nc(C)c3c(C)nc(-c4cccc(C(=O)NC(C)C)c4)n3c2n1 [Example 103, N-Isopropyl-3-(2-methoxy-6,7-dimethylimidazo[1,5-a]pyrido[3,2-e]pyrazin-9-yl)benzamide]
> 100 nM | COc1ccc2nc(C)c3c(C)nc(-c4cccc(C(=O)N(C)C)c4)n3c2n1 [Example 104, 3-(2-Methoxy-6,7-dimethylimidazo[1,5-a]pyrido[3,2-e]pyrazin-9-yl)-N,N-dimethylbenzamide]
> 100 nM | COc1ccc2nc(C)c3c(C)nc(-c4cccc(C(=O)N5CCCCC5)c4)n3c2n1 [Example 105, 2-Methoxy-6,7-dimethyl-9-[3-(piperidin-1-ylcarbonyl)phenyl]imidazo[1,5-a]pyrido[3,2-e]pyrazine]
< 10 nM | COc1ccc2nc(C)c3c(C)nc(-c4cc(C(N)=O)ccc4F)n3c2n1 [Example 106, 4-Fluoro-3-(2-methoxy-6,7-dimethylimidazo[1,5-a]pyrido[3,2-e]pyrazin-9-yl)benzamide]
> 100 nM | CNC(=O)c1ccc(F)c(-c2nc(C)c3c(C)nc4ccc(OC)nc4n23)c1 [Example 107, 4-Fluoro-3-(2-methoxy-6,7-dimethylimidazo[1,5-a]pyrido[3,2-e]pyrazin-9-yl)-N-methylbenzamide]

Same assay, conditions: Table 9, cells marked pPDE10; read-out: IC50 (nM) (pPDE10)

IC50 | Structure (SMILES)
< 10 nM | COc1ccc2nc(C#N)c3c(C)nc(-c4ccccc4Cl)n3c2n1 [Example 111, 9-(2-chlorophenyl)-2-methoxy-7-methylimidazo[1,5-a]pyrido[3,2-e]pyrazine-6-carbonitrile]
< 10 nM | COc1ccc2nc(C#N)c3c(C)nc(-c4ccc(Cl)cc4Cl)n3c2n1 [Example 112, 9-(2,4-dichlorophenyl)-2-methoxy-7-methylimidazo[1,5-a]pyrido[3,2-e]pyrazine-6-carbonitrile]

From patent US20090143361A1, “Pyrido[3,2-E]Pyrazines, Process For Preparing The Same, And Their Use As Inhibitors Of Phosphodiesterase 10” (ELBION GMBH, priority 2007, published 2009)
